Experimental data published in ChEMBL document CHEMBL1134701, “Atropisomeric quinazolin-4-one derivatives are potent noncompetitive alpha-amino-3-hydroxy-5-methyl-4-isoxazolepropionic acid (AMPA) receptor antagonists” (Bioorg Med Chem Lett, 2001).

What was measured:
[1] = target: T1, Glutamate receptor ionotropic, AMPA (Rattus norvegicus, UniProt P19490+P19491+P19492+P19493); assay: Ability to block kainate-induced 45 [Ca2+] influx through functional assay of Ionotropic glutamate receptor AMPA activity in rat cerebellar granule cells
[2] = target: T1, Glutamate receptor ionotropic, AMPA; assay: Evaluated in patch clamp electrophysiology study for its selectively evoked Ionotropic glutamate receptor AMPA mediated inward currents.
Rattus norvegicus [3] = species: Rattus norvegicus; assay: Evaluated in patch clamp electrophysiology study for its selectively evoked AMPA and NMDA (glutamate receptors) mediated inward currents reduction; assay type: functional
Rattus norvegicus [4] = assay: Evaluated in vivo for the reduction in the population spike amplitude in the CA3 region of the hippocampus in anesthetized rat at a dose of 2 mg/kg (iv); assay type: functional
Mus musculus [5] = assay: Blockade of ivc AMPA induced seizures in mice on subcutaneous administration (95%CI); assay type: functional
Mus musculus [6] = assay: Blockade of pentylenetetrazole induced seizures in mice on subcutaneous administration (95% CI); assay type: functional
Mus musculus [7] = assay: Minimum effective dose in mice on subcutaneous administration; assay type: functional
[8] = target: T1, Glutamate receptor ionotropic, AMPA; assay: Ability to block kainate-induced 45 [Ca2+] influx through functional assay of Ionotropic glutamate receptor AMPA activity in rat cerebellar granule cells.
Mus musculus [9] = assay: Blockade of pentylenetetrazole induced seizures in mice on subcutaneous administration; assay type: functional; details: sc, read-out: ID50 (the source's name)

| Structure (SMILES) | IC50 [1] [nM] | further results |
| --- | --- | --- |
| Cc1ccccc1-n1c(/C=C/c2ccccn2)nc2cc(Cl)ccc2c1=O | > 3000 | – |
| CC(C)NCc1cccc(/C=C/c2nc3ccc(F)cc3c(=O)n2-c2ccccc2Cl)n1 | 59 | – |
| CN(C)CCN(C)Cc1cccc(/C=C/c2nc3ccc(F)cc3c(=O)n2-c2ccccc2Cl)n1 | 150 | – |
| O=c1c2cc(F)ccc2nc(/C=C/c2cccc(CF)n2)n1-c1ccccc1Cl | 56 | – |
| O=c1c2cc(F)ccc2nc(/C=C/c2ccccn2)n1-c1ccccc1Cl | 96 | – |
| N#Cc1cccc(/C=C/c2nc3ccc(F)cc3c(=O)n2-c2ccccc2Cl)n1 | 244 | – |
| CCN(CC)Cc1cccc(/C=C/c2nc3ccc(F)cc3c(=O)n2-c2ccccc2Cl)n1 (stereo in doubt; 38) | 74 | IC50 [2]: 25 nM; Reduction (Rattus norvegicus [3]): 36%; Blockade (Rattus norvegicus [4]): 65.1%; ED50 (Mus musculus [5]; Mus musculus, sc, read-out: ID50 (the source's name)): 3.6 mg/kg; ID50 (Mus musculus [6]): 3.8 mg/kg; minimal effective dose (Mus musculus [7]; Mus musculus, sc, read-out: MED): 10 mg/kg |
| O=c1c2ccccc2nc(/C=C/c2ccccn2)n1-c1ccccc1C(F)(F)F | 146 | – |
| CNCc1cccc(/C=C/c2nc3ccc(F)cc3c(=O)n2-c2ccccc2Cl)n1 | 103 | – |
| O=c1c2ccccc2nc(/C=C/c2ccccn2)n1-c1ccccc1 | > 1000 | – |
| Cc1ccccc1-n1c(/C=C/c2ccccn2)nc2c(Cl)cc(Cl)cc2c1=O | > 1000 | – |
| COc1cccc2c(=O)n(-c3ccccc3C)c(/C=C/c3ccccn3)nc12 | > 1000 | – |
| CCOCc1cccc(/C=C/c2nc3ccc(F)cc3c(=O)n2-c2ccccc2Cl)n1 | 82 | – |
| O=c1c2cc(F)ccc2nc(/C=C/c2cccc(CO)n2)n1-c1ccccc1Cl | 58 | – |
| CCN(CC)Cc1cccc(/C=C/c2nc3ccc(F)cc3c(=O)n2-c2ccccc2Cl)n1 (stereo in doubt; (-)-38) | – | IC50 [8]: 0.1 nM; ED50 (Mus musculus [9]): 10 mg/kg |
| Cc1ccccc1-n1c(/C=C/c2ccccn2)nc2ccc(Br)cc2c1=O | 162 | – |
| CC(=O)OCc1cccc(/C=C/c2nc3ccc(F)cc3c(=O)n2-c2ccccc2Cl)n1 | 45 | – |
| COc1cc2nc(/C=C/c3ccccn3)n(-c3ccccc3C)c(=O)c2cc1OC | > 1000 | – |
| CCNCc1cccc(/C=C/c2nc3ccc(F)cc3c(=O)n2-c2ccccc2Cl)n1 | 81 | – |
| Cc1ccccc1-n1c(/C=C/c2ccccn2)nc2ccc(Cl)cc2c1=O | 124 | – |
| O=Cc1cccc(/C=C/c2nc3ccc(F)cc3c(=O)n2-c2ccccc2Cl)n1 | 97 | – |
| O=c1c2ccccc2nc(/C=C/c2ccccn2)n1-c1ccccc1Br | 102 | – |

| Structure (SMILES) | IC50 [1] [nM] | further results |
| --- | --- | --- |
| O=C(O)c1cccc(/C=C/c2nc3ccc(F)cc3c(=O)n2-c2ccccc2Cl)n1 | > 1000 | – |
| O=c1c2cc(F)ccc2nc(/C=C/c2cccc(N3CCCCC3)n2)n1-c1ccccc1Cl | > 300 | – |
| Cc1ccc2nc(/C=C/c3ccccn3)n(-c3ccccc3C)c(=O)c2c1 | 1370 | – |
| COCc1cccc(/C=C/c2nc3ccc(F)cc3c(=O)n2-c2ccccc2Cl)n1 | 42 | – |
| Cc1ccccc1-n1c(/C=C/c2ccccn2)nc2ccc(F)cc2c1=O | 248 | – |
| O=c1c2cc(F)ccc2nc(/C=C/c2ccccn2)n1-c1c(F)cccc1F | > 300 | – |
| Cc1ccccc1-n1c(/C=C/c2ccccn2)nc2ccccc2c1=O [PIRIQUALONE] | 460 | – |
| COc1cccc(/C=C/c2nc3ccc(F)cc3c(=O)n2-c2ccccc2Cl)n1 | 31 | – |
| NCc1cccc(/C=C/c2nc3ccc(F)cc3c(=O)n2-c2ccccc2Cl)n1 | 340 | – |
| O=c1c2ccccc2nc(/C=C/c2ccccn2)n1-c1ccccc1Cl | 433 | – |
| O=c1c2ccccc2nc(/C=C/c2ccccn2)n1-c1ccccc1F | 116 | – |
| CN(C)Cc1cccc(/C=C/c2nc3ccc(F)cc3c(=O)n2-c2ccccc2Cl)n1 | 178 | – |
| Cc1cccc(/C=C/c2nc3ccc(F)cc3c(=O)n2-c2ccccc2Cl)n1 | 36 | – |
| COC(=O)c1cccc(/C=C/c2nc3ccc(F)cc3c(=O)n2-c2ccccc2Cl)n1 | 400 | – |
| O=c1c2cc(F)ccc2nc(/C=C/c2ccccn2)n1-c1ccccc1F | 180 | – |
| O=c1c2ccccc2nc(/C=C/c2ccccn2)n1-c1c(Cl)cccc1Cl | > 1000 | – |
| CCN(CC)Cc1cccc(/C=C/c2nc3ccc(F)cc3c(=O)n2-c2ccccc2Cl)n1 (stereo in doubt; (+)-38) | – | IC50 [8]: 36 nM; ID50 (Mus musculus [5]): 3.1 mg/kg; ID50 (Mus musculus [6]): 1.5 mg/kg; MED (Mus musculus [7]): 5.6 mg/kg |
| COc1ccccc1-n1c(/C=C/c2ccccn2)nc2ccccc2c1=O | 1100 | – |
| O=c1c2cc(F)ccc2nc(/C=C/c2cccc(N3CCCC3)n2)n1-c1ccccc1Cl | 31 | – |
| Cc1cccc(C)c1-n1c(/C=C/c2ccccn2)nc2ccccc2c1=O | > 1000 | – |
| Cc1ccccc1-n1c(/C=C/c2ccccn2)nc2c(Cl)cccc2c1=O | > 1000 | – |
| O=c1c2cc(F)ccc2nc(/C=C/c2ccccn2)n1-c1ccccc1Br | 65 | – |
